# Reference: patent publication US20230190735A1 (TFF Pharmaceuticals, Inc., priority 2021, published 2023)
# Where two headings read alike, the source gives them in different places.
# How the values were obtained:
# CYP2C9 = CYP2C9 (Homo sapiens, UniProt P11712); conditions: in vitro studies; cited from earlier work
# CYP3A [1] = biological target: CYP3A (Homo sapiens, UniProt P08684); conditions: in vitro studies; CYP3A4; cited from earlier work
# [2] = cited from earlier work; for reduction of mean AUC with high-fat meals: multiple doses
# [3] = major metabolite of voriconazole; cited from earlier work
# [4] = PK of systemically administered (oral or IV) voriconazole, VFEND package insert and literature; assay type: in vivo, human; conditions: Imax = Cmax/MW
# CYP2B6 = biological target: T1, CYP2B6 (Homo sapiens, UniProt P20813); conditions: total drug, Ki values based on Jeong 2009; cited from earlier work
# T1 sequence (P20813 1-491): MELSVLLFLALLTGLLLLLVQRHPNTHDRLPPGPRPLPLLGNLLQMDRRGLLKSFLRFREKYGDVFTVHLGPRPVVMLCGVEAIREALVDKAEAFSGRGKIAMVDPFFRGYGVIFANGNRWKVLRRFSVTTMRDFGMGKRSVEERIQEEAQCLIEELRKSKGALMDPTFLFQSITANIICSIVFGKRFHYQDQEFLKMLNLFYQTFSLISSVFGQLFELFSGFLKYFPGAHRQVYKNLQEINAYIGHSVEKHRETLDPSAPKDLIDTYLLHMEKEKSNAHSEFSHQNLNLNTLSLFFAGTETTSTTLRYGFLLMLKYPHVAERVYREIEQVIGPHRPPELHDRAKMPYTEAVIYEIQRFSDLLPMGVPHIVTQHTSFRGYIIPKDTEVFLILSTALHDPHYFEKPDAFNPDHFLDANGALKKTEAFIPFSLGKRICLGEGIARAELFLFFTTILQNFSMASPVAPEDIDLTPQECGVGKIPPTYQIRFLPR
# CYP3A [5] = conditions: CYP3A; total drug; Ki values based on Jeong 2009; cited from earlier work
# [6] = independent of plasma concentration (approx. 0.9-15 μg/mL); cited from earlier work
# [7] = 3 mg/kg IV q12h, geometric mean (% CV)
# [8] = 4 mg/kg IV q12h, geometric mean (% CV)
# [9] = 6 mg/kg IV (loading dose), geometric mean (% CV)
# [10] = 200 mg oral q12h, geometric mean (% CV)
# [11] = 300 mg oral q12h, geometric mean (% CV)
# [12] = 400 mg oral (loading dose), geometric mean (% CV)
# CYP3A (Homo sapiens, UniProt P08684), sequence (P08684 2-503): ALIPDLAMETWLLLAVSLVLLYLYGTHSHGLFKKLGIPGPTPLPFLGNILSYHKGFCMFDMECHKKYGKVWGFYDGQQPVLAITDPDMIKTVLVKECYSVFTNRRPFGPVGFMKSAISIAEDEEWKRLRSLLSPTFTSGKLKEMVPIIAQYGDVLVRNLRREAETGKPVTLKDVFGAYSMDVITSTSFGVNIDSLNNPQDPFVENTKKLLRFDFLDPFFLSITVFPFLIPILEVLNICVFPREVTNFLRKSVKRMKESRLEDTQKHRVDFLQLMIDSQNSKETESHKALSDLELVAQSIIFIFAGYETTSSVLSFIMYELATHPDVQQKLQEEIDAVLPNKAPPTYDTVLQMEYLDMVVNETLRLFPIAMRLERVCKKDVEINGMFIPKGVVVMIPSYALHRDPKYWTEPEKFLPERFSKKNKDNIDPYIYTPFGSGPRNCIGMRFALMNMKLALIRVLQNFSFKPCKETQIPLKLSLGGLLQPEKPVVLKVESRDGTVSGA
# CYP2C9, sequence (P11712 whole entry): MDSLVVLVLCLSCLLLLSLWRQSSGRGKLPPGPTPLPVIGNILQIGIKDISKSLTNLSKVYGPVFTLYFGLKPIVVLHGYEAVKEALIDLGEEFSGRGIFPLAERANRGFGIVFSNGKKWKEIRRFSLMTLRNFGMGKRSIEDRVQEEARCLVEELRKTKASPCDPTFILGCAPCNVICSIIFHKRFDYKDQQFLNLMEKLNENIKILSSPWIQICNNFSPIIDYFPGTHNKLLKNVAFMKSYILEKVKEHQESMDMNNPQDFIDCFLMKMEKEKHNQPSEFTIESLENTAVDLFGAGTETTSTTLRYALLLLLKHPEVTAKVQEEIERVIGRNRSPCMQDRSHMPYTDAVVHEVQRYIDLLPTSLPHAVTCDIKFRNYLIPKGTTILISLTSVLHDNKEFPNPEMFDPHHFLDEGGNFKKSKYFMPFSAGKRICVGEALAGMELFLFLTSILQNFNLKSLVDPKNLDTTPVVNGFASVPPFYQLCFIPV
compound,measurement,setting,value
C[C@@H](c1nc[n+]([O-])cc1F)[C@](O)(Cn1cncn1)c1ccc(F)cc1F [N-oxide],inhibition of metabolic activity of CYP2C9,CYP2C9,inhibits
same,inhibition of metabolic activity of CYP3A4,CYP3A [1],inhibits
same,share of circulating radiolabeled metabolites in plasma,[2]; after radiolabeled voriconazole,72%
same,antifungal activity,[3],minimal antifungal activity
"C[C@@H](c1ncncc1F)[C@](O)(Cn1cncn1)c1ccc(F)cc1F [Voriconazole, (2R,3S)-2-(2,4-difluro-phenyl)-3-(5-flouro-4-pyrimidinyl)-1 (1H-1,2,4-triazol-1-yl)2-butanol]",Imax oral,[4]; based on 200 mg q12h from VFEND label,6.61 µM
same,Imax oral,[4]; based on Cmax from Anderson 2017,3.50 µM
same,Ki,CYP2B6,< 500 nM
same,Ki,CYP3A [5],660 nM
same,AUC12,[2]; [7],13.7 (53) μg:h/mL
same,Cmax,[2]; [7],3.03 (25) μg/mL
same,AUC12,[2]; [8],33.9 (54) μg:h/mL
same,Cmax,[2]; [8],4.77 (36) μg/mL
same,AUC12,[2]; [9],13.9 (32) μg:h/mL
same,Cmax,[2]; [9],3.13 (20) μg/mL
same,AUC12,"[2]; 200 mg oral q12h, adults, geometric mean (% CV)",12.4 (78) μg · h/mL
same,AUC12,[2]; [10],12.4 (78) μg:h/mL
same,Cmax,[2]; [10],2.31 (48) μg/mL
same,AUC12,"[2]; 300 mg oral q12h, adults, geometric mean (% CV)",34.0 (53) μg · h/mL
same,AUC12,[2]; [11],34.0 (53) μg:h/mL
same,Cmax,[2]; [11],4.74 (35) μg/mL
same,AUC12,"[2]; 400 mg oral (loading dose), adults, geometric mean (% CV)",9.31 (38) μg · h/mL
same,AUC12,[2]; [12],9.31 (38) μg:h/mL
same,Cmax,[2]; [12],2.30 (19) μg/mL
same,reduction of mean AUC with high-fat meals,[2]; oral suspension,37%
same,reduction of mean AUC with high-fat meals,[2]; tablet,24%
same,Cmax,[2]; oral 200 mg dose,2310 ng/mL
same,volume of distribution at steady state,[2]; oral or IV administration,4.6 L/kg
same,oral bioavailability,"[2]; population PK analysis, healthy subjects (N=207)",96%
same,Plasma protein binding,[6],58%
